The values that follow are results of earlier work, collected in US20180311347A1, “POLYMORPHISMS IN CACHEXIA PREDICT CLINICAL OUTCOMES OF COLORECTAL CANCER PATIENTS RECEIVING IRINOTECAN AND BEVACIZUMAB” (University of Southern California, priority 2017, published 2018).

Molecules are shown by their SMILES.

This data set relates to type I activin like receptor.

For the compound `NC(=O)c1ccc(-c2nc(-c3ccc4c(c3)OCO4)c(-c3ccccn3)[nH]2)cc1` [SB431542], the VEGF expression entry was “decrease VEGF expression” and the angiogenesis entry is recorded as “inhibit angiogenesis”.
